These results are taken from patent publication US20240247024A1, “INHIBITORS OF NICOTINAMIDE N-METHYL TRANSFERASE (NNMT)” (UNIVERSITEIT LEIDEN, priority 2021, published 2024).

For the assay, the target named is T1, NNMT (Homo sapiens, UniProt P40261).
T1 sequence (P40261 1-264): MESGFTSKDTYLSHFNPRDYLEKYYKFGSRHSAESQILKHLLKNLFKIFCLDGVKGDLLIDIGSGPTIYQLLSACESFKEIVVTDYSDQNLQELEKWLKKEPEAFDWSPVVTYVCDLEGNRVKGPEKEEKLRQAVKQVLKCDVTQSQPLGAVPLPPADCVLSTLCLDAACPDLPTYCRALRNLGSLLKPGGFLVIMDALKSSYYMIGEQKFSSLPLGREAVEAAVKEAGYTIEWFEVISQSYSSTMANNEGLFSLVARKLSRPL
Kind of assay: NNMT assay (HILIC-MS/MS, formation of MNA). As to conditions: NA 200 μM, SAM 8.5 μM, maximum concentration tested 25 μM.

[1] abbreviates: read-out: IC50 values, Table 1, alkene linked aromatics.
The mark [2] stands for this setting: IC50 values (nM), Table 6, amino acid replacement.
The mark [3] stands for this setting: IC50 values (μM), Table 6, amino acid replacement.
[4] abbreviates: IC50 values (nM), Table 1, alkene linked aromatics.
[5] abbreviates: IC50 values (μM), Table 1, alkene linked aromatics.

Values joined by “and” are separate entries in the source; they are usually repeats but may differ in a detail not shown here. Identical values can stand only once. Like-named read-outs stand apart in the source and are kept apart here.

As usually defined, the IC50 is the concentration needed to halve the response being measured. In the case of `NC(=O)c1cc(/C=C/CN(CC[C@H](N)C(=O)O)C[C@H]2O[C@@H](n3cnc4c(N)ncnc43)[C@H](O)[C@@H]2O)ccc1Br` [GYZ-739], the IC50 under setting [1] is 7 nM and 6.8 nM.

Consider `N#Cc1ccc(/C=C/CN(C/C=C/c2ccc(S(=O)(=O)F)cc2)C[C@H]2O[C@@H](n3cnc4c(N)ncnc43)[C@H](O)[C@@H]2O)cc1` [GYZ-743], for which the IC50 worked out at 7780 nM under setting [2] and 7780 nM under setting [3].

Take `Nc1ncnc2c1ncn2[C@@H]1O[C@H](CN(C/C=C/c2cccc(B(O)O)c2)CC[C@H](N)C(=O)O)[C@@H](O)[C@H]1O` [GYZ-746]: the IC50 under setting [1] amounted to 1660 nM.

On to `N#Cc1ccc(/C=C/CN(CCS(=O)(=O)F)C[C@H]2O[C@@H](n3cnc4c(N)ncnc43)[C@H](O)[C@@H]2O)cc1` [GYZ-748], for which the 50% inhibitory concentration (IC50) was greater than 25000 nM under setting [2] and greater than 25000 nM under setting [3].

On to `N#Cc1ccc(/C=C/CN(CC[C@H](N)C(=O)O)C[C@H]2O[C@@H](n3cnc4c(N)ncnc43)[C@H](O)[C@@H]2O)cc1C(N)=O` [GYZ-755], for which, under setting [1], the half-inhibitory concentration (IC50) was 29 nM and 28.7 nM.

Regarding `N#Cc1ccc(/C=C/CN(CCCCc2ccccc2)C[C@H]2O[C@@H](n3cnc4c(N)ncnc43)[C@H](O)[C@@H]2O)cc1` [GYZ-756], the IC50 is, setting by setting: under setting [2], greater than 25000 nM; under setting [3], greater than 25000 nM.

With `Nc1ncnc2c1ncn2[C@@H]1O[C@H](CN(CC[C@H](N)C(=O)O)Cc2ccc(S(=O)(=O)F)cc2)[C@@H](O)[C@H]1O` [GYZ-760], the IC50 was 5620 nM (IC50 values (nM), Table 3, 1-carbon alkyl linkers) and 5620 nM (IC50 values (μM), Table 3, 1-carbon alkyl linkers).

Turning to `CCNCCN(C/C=C/c1ccc(C#N)cc1)C[C@H]1O[C@@H](n2cnc3c(N)ncnc32)[C@H](O)[C@@H]1O` [GYZ-761], the IC50 is, setting by setting: under setting [2], greater than 25000 nM; under setting [3], greater than 25000 nM.

On to `Nc1ncnc2c1ncn2[C@@H]1O[C@H](CN(C/C=C/c2cccc(S(=O)(=O)F)c2)CC[C@H](N)C(=O)O)[C@@H](O)[C@H]1O` [GYZ-764], for which, under setting [1], the IC50 was 89 nM and 88.6 nM.

For the compound `Nc1ncnc2c1ncn2[C@@H]1O[C@H](CN(C/C=C/c2c(F)c(F)c(F)c(F)c2F)CC[C@H](N)C(=O)O)[C@@H](O)[C@H]1O` [MH609], the IC50 by setting is: under setting [4], 400 nM; under setting [5], 400 nM.

For `N#Cc1c(F)c(F)c(/C=C/CN(CC[C@H](N)C(=O)O)C[C@H]2O[C@@H](n3cnc4c(N)ncnc43)[C@H](O)[C@@H]2O)c(F)c1F` [MH610], the IC50 came to 7.14 nM under setting [4] and 7 nM under setting [5].

Take `Nc1ncnc2c1ncn2[C@@H]1O[C@H](CN(C/C=C/c2cc(F)c(F)c(F)c2)CC[C@H](N)C(=O)O)[C@@H](O)[C@H]1O` [MH611]: the IC50 is, setting by setting: under setting [4], 363 nM; under setting [5], 363 nM.

Consider `Nc1ncnc2c1ncn2[C@@H]1O[C@H](CN(C/C=C/c2c(F)c(F)cc(F)c2F)CC[C@H](N)C(=O)O)[C@@H](O)[C@H]1O` [MH612], for which the IC50 runs as follows: under setting [4], 1810 nM; under setting [5], 1810 nM.
